According to patent publication US8268838B2, “Substituted purinyl-pyrazole derivatives and their use as potassium channel modulators” (Neurosearch A/S, priority 2008, dated 2012):

Target: T1, hSK3 channels (Homo sapiens, UniProt Q9UGI6)
T1 construct: expressed in transfected cells; host or cells: HEK293
Assay: Whole-cell patch-clamp recording of ionic current through SK channels (subtype 3) in HEK293 cells expressing hSK3
Assay type: cell-based
Method: The ionic current through small-conductance Ca^2+-activated K^+ channels (SK channels, subtype 3) is recorded using the whole-cell configuration of the patch-clamp technique in a classic patch-clamp set-up using HEK293 tissue culture cells expressing hSK3 channels as described in e.g. WO 2006/100212.
The SC100 value determined is defined as the Stimulating Concentration required for increasing the baseline current by 100%. The SC100 value determined for Compound 6.5 of the invention was 0.3 μM, which is an indication of its SK3 activating properties.

SMILES: Cc1cc(C)n(-c2nc(N(C(=O)OCC(C)C)c3ccc(Cl)cc3)c3ncn(C)c3n2)n1 [Compound 6.5, (4-Chloro-Phenyl)-[2-(3,5-Dimethyl-Pyrazol-1-yl)-9-Methyl-9H-Purin-6-yl]-Carbamic Acid Isobutyl Ester]
- SC100 (Stimulating Concentration required for increasing the baseline current by 100%): 0.3 µM
